{"source": "patent US12213479B2", "about": "“Monoterpenoid/phenylpropanoid-containing compounds and methods of their making and use as herbicides” (KITTRICH CORPORATION, priority 2016, dated 2025)", "format_in_all_cases": "in vivo", "key": {"[1]": {"system": "Wood sorrel", "test": "Foliar spray, wood sorrel", "settings": "20 sprays of 1%, observed 2 days after exposure and later", "protocol": "Wood sorrel on the ground of the greenhouse was also treated with active ingredient in order to better assess the effects of foliar treatments on multiple plant species. A patch of wood sorrel was (approximately 4′×3′) was treated with 20 sprays (mist setting) from a MAINStays ironing spray bottle. Effects of the spray were recorded 2 days after exposure."}, "[2]": {"system": "Palmer Amaranth (Amaranthus palmeri)", "test": "Toxicity assay (probit LC50), Palmer amaranth", "text": "Palmer amaranth seeds were obtained from the Department of Agronomy at Iowa State University. Individual seeds were sown for each pot (1.5″ wide×3″ deep) with approximately 7.5 g of soil for each plot. Five seeds/plot were sown into numerous plots. After one month of germination, germinated plants were counted in each plot and this number was used for the total number of plants challenged per plot in the toxicity assessment\n(§1) The total number of plants were counted in each plot in 24×6 hexagonal small plot planter tray. The number of germinated seeds in each plot was enumerated after one month, and for each plot this number was recorded and used as the total for each plot. Differing concentrations of thymyloxyacetic acid was applied in 5% Triton-X 100 and 1:1 molar ratio potassium hydroxide:thymyloxyacetic acid to aid in the solubility of the compound in water. Ten mL of solution was applied to each plot, and the mortality of the plants was assessed at 3 days and 2 weeks post application (for some treatments). Mortality at these time points were enumerated out of the total plants germinated in each plot at the beginning of the assay. At both time points, the total number of dead plants and total number of plants at the beginning of the assay were recorded for each observation. A Probit model was used to calculate the LC50 values for each of the compounds explored in this assay. A formulation control (with no active ingredient) was screened against a number of plants and factored into the final probit model. This formulation control had little-to-no effect by itself."}, "[3]": {"system": "Waterhemp (Amaranthus tuberculatus)", "test": "Toxicity assay (probit LC50), waterhemp", "text": "Waterhemp seeds were obtained from the Department of Agronomy at Iowa State University. Individual seeds were sown for each pot (1.5″ wide×3″ deep) with approximately 7.5 g of soil for each plot. Five seeds/plot was sown into numerous plots. After one month of germination, germinated plants were counted in each plot and this number was used for the total number of plants challenged per plot in the toxicity assessment.\nas §1"}, "[4]": {"system": "Cocklebur (Xanthium spp.)", "test": "Toxicity assay (probit LC50), cocklebur", "text": "Cocklebur burs were obtained from the Department of Agronomy at Iowa State University. Individual seeds were sown for each pot (1.5″ wide×3″ deep) with approximately 7.5 g of soil for each plot. One bur/plot was sown into numerous plots. After one month of germination, germinated plants were counted in each plot and this number was used for the total number of plants challenged per plot in the toxicity assessment.\nas §1"}, "[5]": {"system": "various dicot weed species", "test": "Selectivity assessment, dicot weed species compared to bluegrass", "settings": "range over various weed species", "text": "Kentucky bluegrass seeds were purchased in a bag under the commercial name of. Individual seeds were sown for each pot (1.5″ wide×3″ deep) with approximately 7.5 g of soil for each plot. 10 seeds/plot was sown into numerous plots. After one month of germination, germinated plants were counted in each plot and this number was used for the total number of plants challenged per plot in the toxicity assessment.\nas §1, with “A formulation control (with no active ingredient) was screened against a number of plants and factored into the final probit model. This formulation control had little-to-no effect by itself.” left out"}}, "note": "“Also recorded” adds a separate entry of the source."}
{"smiles": "O=C(O)COc1ccc(Cl)cc1Cl", "note": "[2,4-D, 2,4-dichlorophenoxyacetic acid]", "values": [{"measurement": "phytotoxic effect on wood sorrel, foliar spray", "setting": "[1]", "value": "took much longer to die"}, {"measurement": "phytotoxic effect on wood sorrel, foliar spray", "setting": "[1]; listed as 2,4-dichloroacetic acid", "value": "plant death was not observed until much later; also recorded: uncontrolled growth and some chlorosis"}, {"measurement": "LC50 Value", "setting": "[2]; Palmer Amaranth (Table 6)", "value": 1300, "unit": "ppm"}, {"measurement": "Selective Toxicity Compared to Bluegrass", "setting": "[2]; Palmer Amaranth compared to bluegrass", "value": 3.54}, {"measurement": "LC50 Value", "setting": "[2]; Palmer Amaranth, 2-week post application, probit", "value": 465.04, "unit": "ppm"}, {"measurement": "LC50 Value", "setting": "[2]; Palmer Amaranth, 3-day post application, probit", "value": 1300, "unit": "ppm"}, {"measurement": "phytotoxicity compared with the other compound", "setting": "[2]; Palmer amaranth, 95% confidence intervals overlapped", "value": "marginally more phytotoxic than thymyloxyacetic acid"}, {"measurement": "LC50 at two weeks compared with three days after application (residual character in soil)", "setting": "[2]; in vivo", "value": "significantly lower LC50 value"}, {"measurement": "LC50 Value", "setting": "[3]; Waterhemp", "value": 1800, "unit": "ppm"}, {"measurement": "Selective Toxicity Compared to Bluegrass", "setting": "[3]; Waterhemp compared to bluegrass", "value": 2.56}, {"measurement": "LC50 Value", "setting": "[4]; Cocklebur", "value": 770, "unit": "ppm"}, {"measurement": "Selective Toxicity Compared to Bluegrass", "setting": "[4]; Cocklebur compared to bluegrass", "value": 5.97}, {"measurement": "selectivity ratio compared to a blue grass species", "setting": "[5]", "value": "2.56-5.97 fold"}]}
